In patent US20100056524A1, “Compound” (priority 2008, published 2010):
Structures can show the parent of a compound that is named as a salt. Where two headings read alike, the source gives them in different places.

Legend:
Format in all cases: biochemical
p38a MAPK = biological target: T1, p38a MAPK (Homo sapiens, UniProt Q16539); assay: p38a MAPK protein kinase assay; settings: for remaining activity at 10 µM: 10 μM compound; for residual kinase activity p38a MAPK: 1 μm compound; for remaining activity at 1 µM: 1 μM compound
T1 construct: All protein kinases were of human origin and encoded full length proteins, unless indicated otherwise; made in house
Source text: (§1) All protein kinases were of human origin and encoded full length proteins, unless indicated otherwise. They were either expressed as glutathione S-transferase (GST) fusion proteins in Escherichia Coli or as hexahistidine (His6)-tagged proteins in insect Sf21 cells. GST fusion proteins were purified by affinity chromatography on glutathione-Sepharose, and His6-tagged proteins on nickel/nitriloacetate-agarose. The procedures for expressing some of the protein kinases used herein have been detailed previously.^8,9 The following sections outline the DNA vectors synthesised and the procedures used to express and purifying protein kinases that have not been reported previously.
(§2) All assays (25.5 μl) were carried out at room temperature (21° C.) and were linear with respect to time and enzyme concentration under the conditions used. Assays were performed for 30 min using Multidrop Micro reagent dispensers (Thermo Electron Corporation, Waltham, Mass. 02454, USA) in a 96-well format. The concentration of magnesium acetate in the assays was 10 mM and the [γ-33P] ATP (800 cpm/pmol) was used at 5, 20 or 50 μM as indicated, in order to be at or below the Km for ATP for each enzyme. Protein kinases assayed at 5 μM ATP were: —ERK1, ERK8, PKBα, MARK3, Aurora C. Protein kinases assayed at 20 μM ATP were: —JNK1, PDK1, CHK1, CHK2, CDK2 and Aurora B. Protein kinases assayed at 50 μM ATP were: —MNK2, IKKepsilon and TBK1.
(§3) The assays were initiated with MgATP, stopped by addition of 5 μl of 0.5 M orthophosphoric acid and spotted on to P81 filterplates using a unifilter harvester (PerkinElmer, Boston, Mass. 02118, USA). The IC50 values of inhibitors were determined after carrying out assays at 10 different concentrations of each compound.
(§4) Unless stated otherwise, enzymes were diluted in 50 mM Tris/HCl pH 7.5, 0.1 mM EGTA, 1 mg/ml BSA, 0.1% (v/v) 2-mercaptoethanol and assayed in 50 mM Tris/HCl pH 7.5, 0.1 mM EGTA, 0.1% (v/v) 2-mercaptoethanol.

RSK2 = biological target: T2, RSK2 (Homo sapiens, UniProt P51812); assay: RSK2 protein kinase assay; settings: for remaining activity at 10 µM: 10 μM compound; for residual kinase activity RSK2: 1 μm compound; for remaining activity at 1 µM: 1 μM compound
T2 construct: All protein kinases were of human origin and encoded full length proteins, unless indicated otherwise; made in house
Source text: as §1, §2, §3, §4

PKD1 = biological target: T3, PKD1 (Homo sapiens, UniProt Q15139); assay: PKD1 protein kinase assay; settings: for remaining activity at 10 µM: 10 μM compound; for residual kinase activity PKD1: 1 μm compound; for remaining activity at 1 µM: 1 μM compound
T3 construct: All protein kinases were of human origin and encoded full length proteins, unless indicated otherwise; made in house
T3 sequence (Q15139 1-912): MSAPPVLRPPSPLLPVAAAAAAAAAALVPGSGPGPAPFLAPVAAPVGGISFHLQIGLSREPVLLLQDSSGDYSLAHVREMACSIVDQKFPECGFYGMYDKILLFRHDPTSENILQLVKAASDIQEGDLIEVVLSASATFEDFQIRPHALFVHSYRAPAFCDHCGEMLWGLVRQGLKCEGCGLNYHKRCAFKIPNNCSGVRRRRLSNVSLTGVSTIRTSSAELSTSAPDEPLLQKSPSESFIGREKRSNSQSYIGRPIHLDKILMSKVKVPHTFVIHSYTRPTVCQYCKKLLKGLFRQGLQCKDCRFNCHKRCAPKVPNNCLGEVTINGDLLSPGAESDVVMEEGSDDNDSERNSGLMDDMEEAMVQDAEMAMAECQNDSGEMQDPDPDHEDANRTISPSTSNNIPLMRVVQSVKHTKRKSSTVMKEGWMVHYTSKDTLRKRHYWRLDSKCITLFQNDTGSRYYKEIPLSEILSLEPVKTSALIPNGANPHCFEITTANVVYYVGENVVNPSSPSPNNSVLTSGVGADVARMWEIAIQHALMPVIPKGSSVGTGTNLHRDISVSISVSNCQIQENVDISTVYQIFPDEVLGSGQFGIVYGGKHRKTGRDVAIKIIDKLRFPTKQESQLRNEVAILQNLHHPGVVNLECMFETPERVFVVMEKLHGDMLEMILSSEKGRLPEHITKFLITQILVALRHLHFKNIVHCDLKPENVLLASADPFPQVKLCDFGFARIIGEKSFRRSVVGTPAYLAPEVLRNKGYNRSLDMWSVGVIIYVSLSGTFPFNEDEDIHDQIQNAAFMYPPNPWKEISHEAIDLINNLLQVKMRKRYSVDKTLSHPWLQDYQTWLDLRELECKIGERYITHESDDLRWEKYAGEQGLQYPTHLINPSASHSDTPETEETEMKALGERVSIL
Source text: as §1, §2, §3, §4

MNK2 = biological target: T4, MNK2 (Homo sapiens, UniProt Q9HBH9); assay: MNK2 protein kinase assay; settings: for remaining activity at 10 µM: 10 μM compound; for residual kinase activity MNK2: 1 μm compound; for remaining activity at 1 µM: 1 μM compound
T4 construct: All protein kinases were of human origin and encoded full length proteins, unless indicated otherwise; GST; made in house; host or cells: E. coli
Source text: as §1
The following proteins were expressed in E. coli: —CHK2[5-543], cyclin-dependent protein kinase 2 (CDK2), MAP kinase-interacting kinase 2 (MNK2), extra-cellular signal-regulated kinase 1 (ERK1).
In order to produce activated forms of Aurora B and Aurora C, insect Sf21 cells were incubated for 1 h with the protein phosphatase inhibitor okadaic acid (50 nM). JNK isoforms were activated with MKK4 and MKK7, MNK2 with p38α MAPkinase; PKBα, PKBβ, with PDK1, and ERK1 with MKK1. To activate CDK2, bacterial pellets expressing cyclin A2 and CDK2 were mixed together, lyse and purified on glutathione Sepharose. The GST-tags were removed by cleavage with PreScission protease and the CDK2-cyclin A2 complex purified by chromatography on SP-Sepharose. It was then activated with CAK1/CDK7 followed by chromatography on nickel-nitrilotriacetate agarose to remove CAK1/CDK7, which binds to this column by virtue of its C-terminal His6 tag. All the other protein kinases were active as expressed.
as §2, §3
ERK1 and ERK8 were both assayed against myelin basic protein (MBP, 0.33 mg/ml). MARK3 was assayed against the peptide […] (300 μM), MNK2 against the eIF4E protein (0.5 mg/ml). PKBβ was assayed against the peptide […] (30 μM). TBK1 were assayed against ([…]) (300 μM). The substrates used for other protein kinases were described previously.^8,9
as §4

CAMKKb = biological target: T5, CAMKKb (Homo sapiens, UniProt Q96RR4); assay: CAMKKb protein kinase assay; settings: for remaining activity at 10 µM: 10 μM compound; for residual kinase activity CAMKKb: 1 μm compound; for remaining activity at 1 µM: 1 μM compound
T5 construct: All protein kinases were of human origin and encoded full length proteins, unless indicated otherwise; made in house
Source text: as §1, §2, §3, §4

PIM1 = biological target: T6, PIM1 (Homo sapiens, UniProt P11309); assay: PIM1 protein kinase assay; settings: for remaining activity at 10 µM: 10 μM compound; for residual kinase activity PIM1: 1 μm compound; for remaining activity at 1 µM: 1 μM compound
T6 construct: All protein kinases were of human origin and encoded full length proteins, unless indicated otherwise; made in house
Source text: as §1, §2, §3, §4

[1] = read-out: residual kinase activity p38a MAPK
[2] = read-out: residual kinase activity RSK2
[3] = read-out: residual kinase activity PKD1
[4] = read-out: residual kinase activity MNK2
[5] = read-out: residual kinase activity CAMKKb
[6] = read-out: residual kinase activity PIM1
[7] = p38a MAPK, read-out: residual kinase activity
[8] = RSK2, read-out: residual kinase activity
[9] = PKD1, read-out: residual kinase activity
[10] = MNK2, 50 μM ATP, read-out: residual kinase activity
[11] = CAMKKb, read-out: residual kinase activity
[12] = PIM1, read-out: residual kinase activity

T1 sequence (Q16539 whole entry): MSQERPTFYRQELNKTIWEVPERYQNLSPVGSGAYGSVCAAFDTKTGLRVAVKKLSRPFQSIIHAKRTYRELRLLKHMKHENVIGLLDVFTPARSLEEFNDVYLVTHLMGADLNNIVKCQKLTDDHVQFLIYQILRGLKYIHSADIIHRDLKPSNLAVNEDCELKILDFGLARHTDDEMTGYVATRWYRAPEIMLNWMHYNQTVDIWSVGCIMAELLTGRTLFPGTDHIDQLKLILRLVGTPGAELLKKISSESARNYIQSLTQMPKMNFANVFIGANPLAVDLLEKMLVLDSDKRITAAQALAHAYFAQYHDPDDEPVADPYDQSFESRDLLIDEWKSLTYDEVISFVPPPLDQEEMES
T5 sequence (Q96RR4 whole entry): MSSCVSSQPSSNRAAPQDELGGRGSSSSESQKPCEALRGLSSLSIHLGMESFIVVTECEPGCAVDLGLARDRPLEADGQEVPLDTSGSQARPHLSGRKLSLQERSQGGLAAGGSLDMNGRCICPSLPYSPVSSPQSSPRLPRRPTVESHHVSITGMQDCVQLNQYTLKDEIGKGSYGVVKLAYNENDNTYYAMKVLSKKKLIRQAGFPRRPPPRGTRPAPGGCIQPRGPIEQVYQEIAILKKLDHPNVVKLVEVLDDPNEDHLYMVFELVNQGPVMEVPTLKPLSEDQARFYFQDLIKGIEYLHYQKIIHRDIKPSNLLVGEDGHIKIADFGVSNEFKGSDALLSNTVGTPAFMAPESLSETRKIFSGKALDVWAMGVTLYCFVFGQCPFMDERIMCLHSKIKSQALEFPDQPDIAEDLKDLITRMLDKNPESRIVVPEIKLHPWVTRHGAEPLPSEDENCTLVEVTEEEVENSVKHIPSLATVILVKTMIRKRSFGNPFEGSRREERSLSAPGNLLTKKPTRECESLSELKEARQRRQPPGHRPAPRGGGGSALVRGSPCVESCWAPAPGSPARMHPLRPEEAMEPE
T6 sequence (P11309 whole entry): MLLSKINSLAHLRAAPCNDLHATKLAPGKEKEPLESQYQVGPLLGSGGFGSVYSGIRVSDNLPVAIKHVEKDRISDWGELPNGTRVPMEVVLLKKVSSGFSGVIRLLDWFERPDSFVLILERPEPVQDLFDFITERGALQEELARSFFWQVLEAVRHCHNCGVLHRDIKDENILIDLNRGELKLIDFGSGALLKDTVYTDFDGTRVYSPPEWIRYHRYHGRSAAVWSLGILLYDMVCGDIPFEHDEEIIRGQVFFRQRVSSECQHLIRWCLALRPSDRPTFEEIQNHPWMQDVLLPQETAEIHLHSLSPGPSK
T4 sequence (Q9HBH9 whole entry): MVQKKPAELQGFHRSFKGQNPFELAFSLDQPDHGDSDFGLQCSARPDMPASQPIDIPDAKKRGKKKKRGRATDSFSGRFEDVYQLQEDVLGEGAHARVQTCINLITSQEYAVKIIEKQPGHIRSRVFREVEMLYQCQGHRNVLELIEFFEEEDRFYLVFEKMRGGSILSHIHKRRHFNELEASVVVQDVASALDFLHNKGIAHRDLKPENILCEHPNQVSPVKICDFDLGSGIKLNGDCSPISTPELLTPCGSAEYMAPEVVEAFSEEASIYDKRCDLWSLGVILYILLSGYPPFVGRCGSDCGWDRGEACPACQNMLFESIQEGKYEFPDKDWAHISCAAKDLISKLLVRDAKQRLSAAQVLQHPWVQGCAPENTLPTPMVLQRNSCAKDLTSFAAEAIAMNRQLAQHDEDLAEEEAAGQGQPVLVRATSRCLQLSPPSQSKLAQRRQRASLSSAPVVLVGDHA
T2 sequence (P51812 whole entry): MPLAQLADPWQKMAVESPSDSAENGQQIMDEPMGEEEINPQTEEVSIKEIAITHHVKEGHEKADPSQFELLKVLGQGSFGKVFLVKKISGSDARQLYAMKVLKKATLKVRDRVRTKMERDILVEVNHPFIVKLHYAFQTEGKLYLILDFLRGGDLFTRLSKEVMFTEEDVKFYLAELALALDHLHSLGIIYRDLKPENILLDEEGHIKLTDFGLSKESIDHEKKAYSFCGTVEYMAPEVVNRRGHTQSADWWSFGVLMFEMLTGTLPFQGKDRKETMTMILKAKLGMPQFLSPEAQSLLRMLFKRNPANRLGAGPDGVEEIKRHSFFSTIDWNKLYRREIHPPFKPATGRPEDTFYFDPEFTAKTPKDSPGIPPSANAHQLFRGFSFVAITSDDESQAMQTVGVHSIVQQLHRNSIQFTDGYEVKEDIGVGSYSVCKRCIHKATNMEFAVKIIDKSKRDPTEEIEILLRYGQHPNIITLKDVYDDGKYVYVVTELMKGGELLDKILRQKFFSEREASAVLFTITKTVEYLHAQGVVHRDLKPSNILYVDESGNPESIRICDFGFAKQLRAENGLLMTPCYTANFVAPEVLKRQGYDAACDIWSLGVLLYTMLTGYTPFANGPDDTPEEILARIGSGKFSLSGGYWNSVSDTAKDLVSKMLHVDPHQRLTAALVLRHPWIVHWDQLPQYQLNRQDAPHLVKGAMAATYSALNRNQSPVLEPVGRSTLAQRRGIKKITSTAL

| Compound | remaining activity at 10 µM (p38a MAPK; [1]) [%] | residual kinase activity p38a MAPK (p38a MAPK) [%] | remaining activity at 10 µM (RSK2; [2]) [%] | residual kinase activity RSK2 (RSK2) [%] | remaining activity at 10 µM (PKD1; [3]) [%] | residual kinase activity PKD1 (PKD1) [%] | remaining activity at 10 µM (MNK2; [4]) [%] | residual kinase activity MNK2 (MNK2) [%] | remaining activity at 1 µM (p38a MAPK; [7]) [%] | remaining activity at 10 µM (p38a MAPK; [7]) [%] | remaining activity at 1 µM (RSK2; [8]) [%] | remaining activity at 10 µM (RSK2; [8]) [%] | remaining activity at 1 µM (PKD1; [9]) [%] | remaining activity at 10 µM (PKD1; [9]) [%] | remaining activity at 1 µM (MNK2; [10]) [%] | remaining activity at 10 µM (MNK2; [10]) [%] | remaining activity at 1 µM (CAMKKb; [11]) [%] | remaining activity at 10 µM (CAMKKb; [11]) [%] | remaining activity at 1 µM (PIM1; [12]) [%] | remaining activity at 10 µM (PIM1; [12]) [%] | further results |
| --- | --- | --- | --- | --- | --- | --- | --- | --- | --- | --- | --- | --- | --- | --- | --- | --- | --- | --- | --- | --- | --- |
| O=C(NCCCNc1nc(Nc2cccc(F)c2)ncc1Br)C1CCC1 [Compound A, cyclobutanecarboxylic acid {3-[5-bromo-2-(3-fluoro-phenylamino)-pyrimidin-4-ylamino]-propyl}-amide, reference compound] | 78 | 99 | 9 | 38 | 1 | 7 | 7 | 6 | – | – | – | – | – | – | – | – | – | – | – | – | remaining activity at 10 µM (CAMKKb; [5]): 22%; residual kinase activity CAMKKb (CAMKKb): 27%; remaining activity at 10 µM (PIM1; [6]): 50%; residual kinase activity PIM1 (PIM1): 52% |
| O=C(NCCCNc1nc(Nc2cccc(F)c2)ncc1C1CC1)C1CCC1 [Example 23, Cyclobutanecarboxylic acid {3-[5-cyclopropyl-2-(3-fluoro-phenylamino)-pyrimidin-4-ylamino]-propyl}-amide] | 86 | 72 | 14 | 44 | 53 | 68 | 10 | 39 | 72 | 86 | 44 | 14 | 68 | 53 | 39 | 10 | 43 | 8 | 78 | 46 | remaining activity at 10 µM (CAMKKb; [5]): 8%; residual kinase activity CAMKKb (CAMKKb): 43%; remaining activity at 10 µM (PIM1; [6]): 46%; residual kinase activity PIM1 (PIM1): 78% |
| O=C(NCCCNc1nc(Nc2cccc(N3CCCC3=O)c2)ncc1C1CC1)c1cccs1 [Example 47, Thiophene-2-carboxylic acid (3-{5-cyclopropyl-2-[3-(2-oxo-pyrrolidin-1-yl)-phenylamino]-pyrimidin-4-ylamino}-propyl)-amide. Hydrochloride salt] | – | – | – | – | – | – | – | – | 105 | 100 | 65 | 28 | 57 | 52 | 36 | 16 | 61 | 36 | 82 | 57 | – |
| O=C(NCCCNc1nc(Nc2cccnc2)ncc1C1CC1)c1cccs1 [Example 50, Thiophene-2-carboxylic acid {3-[5-cyclopropyl-2-(pyridin-3-ylamino)-pyrimidin-4-ylamino]-propyl}-amide] | – | – | – | – | – | – | – | – | 106 | 90 | 69 | 28 | 60 | 36 | 56 | 21 | 72 | 40 | 63 | 92 | – |
